This is an account of results in patent publication US10870647B2, “Imidazopyridine derivative, method for preparing same, and pharmaceutical composition containing same as active ingredient for preventing or treating cancer” (DAEGU-GYEONGBUK MEDICAL INNOVATION FOUNDATION, priority 2016, dated 2020).

Test in all cases: Kinase selectivity, scanMAX Kinase assay panel (DiscoverX), % control at 1 uM
Common to all, as to assay type: binding

Assay [1] has as its target T1, scanMAX Kinase assay panel (Homo sapiens, UniProt Q32MK0).
T1 construct: purchased DiscoverX
T1 sequence (Q32MK0 1-819): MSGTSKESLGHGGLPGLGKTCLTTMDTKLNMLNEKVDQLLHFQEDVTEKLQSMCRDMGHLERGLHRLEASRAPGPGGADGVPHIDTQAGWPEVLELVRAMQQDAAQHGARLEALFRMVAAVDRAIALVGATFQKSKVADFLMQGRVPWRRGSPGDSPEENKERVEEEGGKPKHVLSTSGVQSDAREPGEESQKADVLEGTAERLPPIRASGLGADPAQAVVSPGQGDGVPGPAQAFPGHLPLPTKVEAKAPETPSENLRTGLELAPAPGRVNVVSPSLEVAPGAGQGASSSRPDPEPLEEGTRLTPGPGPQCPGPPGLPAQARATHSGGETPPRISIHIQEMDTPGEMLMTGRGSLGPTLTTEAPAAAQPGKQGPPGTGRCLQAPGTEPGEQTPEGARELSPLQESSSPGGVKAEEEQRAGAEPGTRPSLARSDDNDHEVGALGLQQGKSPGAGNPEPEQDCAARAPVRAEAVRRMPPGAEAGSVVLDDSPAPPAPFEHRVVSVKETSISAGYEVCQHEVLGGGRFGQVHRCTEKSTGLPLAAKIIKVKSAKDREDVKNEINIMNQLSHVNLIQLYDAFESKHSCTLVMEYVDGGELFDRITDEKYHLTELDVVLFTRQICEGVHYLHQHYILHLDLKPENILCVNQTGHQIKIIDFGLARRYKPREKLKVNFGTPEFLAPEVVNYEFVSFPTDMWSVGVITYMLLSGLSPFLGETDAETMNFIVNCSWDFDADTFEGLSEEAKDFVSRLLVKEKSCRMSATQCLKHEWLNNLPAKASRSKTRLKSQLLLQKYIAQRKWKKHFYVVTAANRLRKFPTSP
As to conditions: MLCK; 1 uM; read-out: Percent Control (%). In a few lines: (§1)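 Activity was called for kinases showing % control under 35, calculated from compound signal relative to positive and negative controls. Each compound screened at 1 uM against the DiscoverX scanMAX panel.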

The target of assay [2] is T2, scanMAX Kinase assay panel (Homo sapiens, UniProt Q13873).
T2 construct: purchased DiscoverX
T2 sequence (Q13873 27-1038): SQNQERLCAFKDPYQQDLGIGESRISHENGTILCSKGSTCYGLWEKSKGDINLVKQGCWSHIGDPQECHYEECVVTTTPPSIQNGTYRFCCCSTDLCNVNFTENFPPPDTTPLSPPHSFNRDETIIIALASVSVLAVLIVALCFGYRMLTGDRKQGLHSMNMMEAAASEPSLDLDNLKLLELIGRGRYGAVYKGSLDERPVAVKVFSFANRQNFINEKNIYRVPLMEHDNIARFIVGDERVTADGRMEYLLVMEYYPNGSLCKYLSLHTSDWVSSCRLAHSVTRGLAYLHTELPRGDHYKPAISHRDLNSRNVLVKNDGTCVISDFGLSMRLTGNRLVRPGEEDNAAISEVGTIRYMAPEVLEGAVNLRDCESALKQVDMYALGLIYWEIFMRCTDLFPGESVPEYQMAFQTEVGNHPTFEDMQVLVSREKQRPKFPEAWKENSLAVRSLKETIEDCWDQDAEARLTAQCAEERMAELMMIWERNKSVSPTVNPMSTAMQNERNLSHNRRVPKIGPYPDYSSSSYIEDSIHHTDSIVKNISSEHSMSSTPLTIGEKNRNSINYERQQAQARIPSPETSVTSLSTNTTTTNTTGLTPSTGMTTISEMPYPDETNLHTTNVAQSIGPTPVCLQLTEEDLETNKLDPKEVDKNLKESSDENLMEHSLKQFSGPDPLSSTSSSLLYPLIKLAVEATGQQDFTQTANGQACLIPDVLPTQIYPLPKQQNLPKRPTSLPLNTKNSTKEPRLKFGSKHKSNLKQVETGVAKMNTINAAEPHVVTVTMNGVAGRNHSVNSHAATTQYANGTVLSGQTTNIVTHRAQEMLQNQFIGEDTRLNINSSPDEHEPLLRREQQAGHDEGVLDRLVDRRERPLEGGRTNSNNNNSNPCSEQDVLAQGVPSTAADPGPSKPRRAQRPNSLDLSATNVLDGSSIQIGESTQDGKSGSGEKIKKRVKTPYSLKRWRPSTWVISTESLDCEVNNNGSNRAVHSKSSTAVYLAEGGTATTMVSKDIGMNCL
The note with it: BMPR2; 1 uM; read-out: Percent Control (%). In a few lines: as §1

Assay [3] concerns the target T3, scanMAX Kinase assay panel (Homo sapiens, UniProt P42345).
T3 construct: purchased DiscoverX
The note with it: MTOR; 1 uM; read-out: Percent Control (%). An outline of the steps:
as §1

For assay [4], the target named is T4, scanMAX Kinase assay panel (Homo sapiens, UniProt P50750).
T4 construct: purchased DiscoverX
T4 sequence (P50750 whole entry): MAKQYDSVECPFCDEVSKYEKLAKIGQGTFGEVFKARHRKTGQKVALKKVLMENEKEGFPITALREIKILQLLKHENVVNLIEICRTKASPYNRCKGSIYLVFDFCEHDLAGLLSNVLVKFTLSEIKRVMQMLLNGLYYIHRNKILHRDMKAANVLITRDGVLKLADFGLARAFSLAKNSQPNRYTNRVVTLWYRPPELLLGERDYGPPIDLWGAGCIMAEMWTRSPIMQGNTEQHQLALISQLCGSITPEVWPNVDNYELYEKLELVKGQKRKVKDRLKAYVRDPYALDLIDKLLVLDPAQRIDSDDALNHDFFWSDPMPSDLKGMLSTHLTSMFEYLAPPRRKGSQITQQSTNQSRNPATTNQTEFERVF
As to conditions: CDK9; 1 uM; read-out: Percent Control (%). In a few lines:
as §1

The target in assay [5] is T5, scanMAX Kinase assay panel (Homo sapiens, UniProt P08631).
T5 construct: purchased DiscoverX
T5 sequence (P08631 whole entry): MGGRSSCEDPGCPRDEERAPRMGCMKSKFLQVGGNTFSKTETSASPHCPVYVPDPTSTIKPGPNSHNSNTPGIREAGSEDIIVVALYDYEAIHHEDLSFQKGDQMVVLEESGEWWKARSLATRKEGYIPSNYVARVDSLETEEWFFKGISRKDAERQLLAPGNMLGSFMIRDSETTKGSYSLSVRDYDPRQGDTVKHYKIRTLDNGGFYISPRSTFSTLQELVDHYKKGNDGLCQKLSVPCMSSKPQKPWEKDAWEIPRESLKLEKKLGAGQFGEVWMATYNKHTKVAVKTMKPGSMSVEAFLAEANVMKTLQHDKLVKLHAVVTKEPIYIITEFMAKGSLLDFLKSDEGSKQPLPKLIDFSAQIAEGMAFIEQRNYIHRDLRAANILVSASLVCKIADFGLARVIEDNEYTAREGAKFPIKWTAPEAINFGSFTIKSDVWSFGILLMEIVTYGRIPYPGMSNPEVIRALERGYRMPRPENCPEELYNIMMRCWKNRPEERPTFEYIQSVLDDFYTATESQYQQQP
The note with it: HCK; 1 uM; read-out: Percent Control (%). An outline of the steps: as §1

In assay [6] the target is T6, scanMAX Kinase assay panel (Homo sapiens, UniProt Q9H0K1).
T6 construct: purchased DiscoverX
T6 sequence (Q9H0K1 whole entry): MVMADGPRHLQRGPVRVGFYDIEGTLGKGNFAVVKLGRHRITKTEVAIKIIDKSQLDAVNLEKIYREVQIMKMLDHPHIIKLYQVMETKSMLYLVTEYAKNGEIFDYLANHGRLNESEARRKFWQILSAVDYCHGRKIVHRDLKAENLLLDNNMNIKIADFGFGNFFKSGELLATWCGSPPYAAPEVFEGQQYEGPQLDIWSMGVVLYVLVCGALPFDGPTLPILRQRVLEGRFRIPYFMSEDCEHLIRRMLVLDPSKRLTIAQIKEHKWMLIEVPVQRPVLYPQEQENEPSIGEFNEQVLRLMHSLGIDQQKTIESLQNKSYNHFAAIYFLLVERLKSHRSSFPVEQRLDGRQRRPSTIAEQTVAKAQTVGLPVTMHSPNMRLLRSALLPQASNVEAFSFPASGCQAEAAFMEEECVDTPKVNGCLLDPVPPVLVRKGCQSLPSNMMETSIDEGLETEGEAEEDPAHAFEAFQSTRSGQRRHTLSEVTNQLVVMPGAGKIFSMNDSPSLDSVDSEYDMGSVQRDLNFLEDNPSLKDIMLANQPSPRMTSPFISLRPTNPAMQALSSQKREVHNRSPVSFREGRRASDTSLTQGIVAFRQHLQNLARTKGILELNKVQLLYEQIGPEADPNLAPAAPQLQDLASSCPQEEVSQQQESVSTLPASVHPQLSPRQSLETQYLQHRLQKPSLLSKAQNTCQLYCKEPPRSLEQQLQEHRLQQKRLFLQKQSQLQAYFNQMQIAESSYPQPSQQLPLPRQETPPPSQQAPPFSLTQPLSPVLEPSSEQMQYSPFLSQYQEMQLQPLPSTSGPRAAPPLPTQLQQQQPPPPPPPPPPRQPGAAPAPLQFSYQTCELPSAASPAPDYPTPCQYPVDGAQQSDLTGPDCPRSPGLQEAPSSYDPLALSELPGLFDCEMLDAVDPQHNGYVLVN
As to conditions: SIK2; 1 uM; read-out: Percent Control (%). An outline of the steps: as §1

Consider `Cc1ccc(C(=O)Nc2ccc(CN3CCN(C)CC3)c(C(F)(F)F)c2)cc1C#Cc1cnc2c(Nc3cnn(C)c3)cccn12` [Example 1, 4-methyl-3-((8-((1-methyl-1H-pyrazol-4-yl)amino)imidazo[1,2-a]pyridin-3-yl)ethynyl)-N-(4-((4-methylpiperazin-1-yl)methyl)-3-(trifluoromethyl)phenyl)benzamide], for which the remaining binding at 1 µM in assay [1] was determined as 90%; in assay [2], 82%; in assay [3] it was 77%; in assay [4], 72%; in assay [5], 0%; in assay [6], 44%.
As for `Cc1cn(-c2cc(NC(=O)c3ccc(C)c(C#Cc4cnc5c(Nc6cnn(C)c6)cccn45)c3)cc(C(F)(F)F)c2)cn1` [Example 12, 4-methyl-N-(3-(4-methyl-1H-imidazol-1-yl)-5-(trifluoromethyl)phenyl)-3-((8-((1-methyl-1H-pyrazol-4-yl)amino)imidazo[1,2-a]pyridin-3-yl)ethynyl)benzamide], the remaining binding at 1 µM in assay [1] worked out at 91%; in assay [2] it was 100%; in assay [3], 66%; in assay [4], 88%; in assay [5], 1%; in assay [6] it was 58%.
For the molecule `Cc1ccc(NC(=O)C2(C(=O)Nc3ccc(F)cc3)CC2)cc1C#Cc1cnc2c(Nc3cnn(C(C)C)c3)cccn12` [Example 78], the remaining binding at 1 µM in assay [1] stood at 100%; in assay [2], 84%; in assay [3], 91%; in assay [4], 100%; in assay [5], 71%; in assay [6], 53%.
